The nature of this data set: solubility in water. In kind it is physicochemical. The protocol:
In the preferred embodiment, a 100 ml. mixture would be created by mixing 1 gram of butenafine with 5 ml. of benzyl alcohol at room temperature. This would then be dissolved into 85 ml. of ethanol, then 10 ml. of water would be added.

For `CN(Cc1ccc(C(C)(C)C)cc1)Cc1cccc2ccccc12` [Butenafine, butenafine], the solubility in water entry is reported as “limited solubility”.

(Values after patent publication US20080249088A1, “Topical Delivery of Antifungal Drugs” (priority 2007, published 2008).)
